Laboratory results as given in ChEMBL document CHEMBL1201862, “PubChem BioAssay data set” (2004).
Activity calls are given as the source filed them.

Tests used:
[1] = molecular target: Sphingosine 1-phosphate receptor 5 (Homo sapiens, UniProt Q9H228); test: Late stage counterscreen assay for S1P4 antagonists: Fluorescence dose response cell-based screening assay for antagonists of the Sphingosine 1-Phosphate Receptor 5 (S1P5). [Related pubchem assays (depositor defined):AID1510, AID1524, AID1692, AID1853, AID2332, AID489009, AID489017]; assay type: functional
[2] = molecular target: Sphingosine 1-phosphate receptor 3 (Homo sapiens, UniProt Q99500); test: Late stage counterscreen assay for S1P4 antagonists: Fluorescence dose response cell-based screening assay for antagonists of the Sphingosine 1-Phosphate Receptor 3 (S1P3). [Related pubchem assays (depositor defined):AID1510, AID1524, AID1692, AID1853, AID2332, AID489009, AID489017]; assay type: functional
[3] = molecular target: Sphingosine 1-phosphate receptor 1 (Homo sapiens, UniProt P21453); test: Late stage counterscreen assay for S1P4 antagonists: Fluorescence dose response cell-based screening assay for antagonists of the Sphingosine 1-Phosphate Receptor 1 (S1P1). [Related pubchem assays (depositor defined):AID1510, AID1524, AID1692, AID1853, AID2332, AID489009, AID489017]; assay type: functional
[4] = molecular target: T1, Sphingosine 1-phosphate receptor 4 (Homo sapiens, UniProt O95977); test: S1P4 receptor antagonists, human, late-stage follow-up, cell-based, fluorescence, synthesized analogues (AID 2346); assay type: functional
T1 sequence (O95977 whole entry): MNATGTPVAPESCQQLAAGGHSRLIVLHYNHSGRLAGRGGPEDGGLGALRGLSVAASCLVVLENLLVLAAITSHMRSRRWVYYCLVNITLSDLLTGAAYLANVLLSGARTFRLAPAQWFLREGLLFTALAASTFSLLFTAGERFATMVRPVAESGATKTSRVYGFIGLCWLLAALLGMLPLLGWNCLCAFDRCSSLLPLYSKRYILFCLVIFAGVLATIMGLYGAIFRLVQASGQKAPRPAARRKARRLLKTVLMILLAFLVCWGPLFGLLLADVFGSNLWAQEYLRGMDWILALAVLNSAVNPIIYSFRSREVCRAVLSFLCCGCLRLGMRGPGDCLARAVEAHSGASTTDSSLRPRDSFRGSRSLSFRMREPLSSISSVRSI

[5] = molecular target: Sphingosine 1-phosphate receptor 2 (Homo sapiens, UniProt O95136); test: Late stage counterscreen assay for S1P4 antagonists: Fluorescence dose response cell-based screening assay for antagonists of the Sphingosine 1-Phosphate Receptor 2 (S1P2). [Related pubchem assays (depositor defined):AID1510, AID1524, AID1692, AID1853, AID2332, AID489009, AID489017]; assay type: functional
[6] = tested on: Streptococcus sp. 'group A'; test: growth inhibition of control SK(-) GAS strain, dose response, counter-screen for streptokinase expression inhibitor project, luminescence, kanamycin, BacTiterGlo, confirmation (AID 1900); assay type: functional, organism-based
Streptokinase A = molecular target: T2, Streptokinase A (Streptococcus pyogenes serotype M1, UniProt P10520); test: S. pyogenes streptokinase expression inhibitors, potency, dose response, plasminogen activation absorbance, OD405 (AID 1914); assay type: functional, Streptococcus pyogenes M1 GAS;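 also: secreted streptokinase activity via plasminogen activation per viability signal from cell pellet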
T2 sequence (P10520 whole entry): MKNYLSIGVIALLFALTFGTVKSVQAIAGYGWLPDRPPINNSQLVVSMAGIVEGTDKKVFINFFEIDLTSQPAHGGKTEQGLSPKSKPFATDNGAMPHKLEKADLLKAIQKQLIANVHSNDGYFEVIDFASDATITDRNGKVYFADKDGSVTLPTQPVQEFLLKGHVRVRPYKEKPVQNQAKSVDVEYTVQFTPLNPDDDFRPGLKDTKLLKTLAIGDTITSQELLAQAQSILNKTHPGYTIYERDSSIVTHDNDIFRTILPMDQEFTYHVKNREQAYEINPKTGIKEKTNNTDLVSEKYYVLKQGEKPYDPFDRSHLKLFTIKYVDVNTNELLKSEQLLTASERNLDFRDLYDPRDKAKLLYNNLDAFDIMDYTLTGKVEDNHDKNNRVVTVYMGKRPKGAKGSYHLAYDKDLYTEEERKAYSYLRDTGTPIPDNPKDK

Streptococcus = test: Group A Streptococcus viability loss, dose response, counter-screen for streptokinase expression inhibitor project, luminescence, BacTiterGlo (AID 1915); assay type: functional, organism-based;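 also: potency for reduction of bacterial viability or growth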
[7] = molecular target: Intestinal-type alkaline phosphatase (Mus musculus, UniProt P24822); test: PubChem AID 488785; assay type: functional
[8] = molecular target: T3, Alkaline phosphatase, tissue-nonspecific isozyme (Homo sapiens, UniProt P05186); test: TNAP enzyme inhibition by screening hits, dose response, selectivity assay for mouse IAP inhibitor project, biochemical, human TNAP, uHTS hits (AID 488906); assay type: functional
T3 sequence (P05186 whole entry): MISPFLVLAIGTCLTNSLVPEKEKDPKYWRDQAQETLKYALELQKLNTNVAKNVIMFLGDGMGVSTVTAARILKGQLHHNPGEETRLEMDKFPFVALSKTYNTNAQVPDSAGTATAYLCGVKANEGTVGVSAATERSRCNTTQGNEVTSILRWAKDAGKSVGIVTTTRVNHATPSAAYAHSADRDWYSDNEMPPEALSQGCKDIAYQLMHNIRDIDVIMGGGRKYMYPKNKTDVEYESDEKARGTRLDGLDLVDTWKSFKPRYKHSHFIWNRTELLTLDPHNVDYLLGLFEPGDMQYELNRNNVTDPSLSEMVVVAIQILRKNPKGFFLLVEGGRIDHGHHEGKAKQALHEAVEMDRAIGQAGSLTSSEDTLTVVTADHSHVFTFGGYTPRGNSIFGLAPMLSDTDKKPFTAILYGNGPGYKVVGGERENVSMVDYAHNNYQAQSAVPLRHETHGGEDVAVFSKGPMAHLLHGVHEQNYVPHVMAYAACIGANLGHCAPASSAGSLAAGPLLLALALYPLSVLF

[9] = molecular target: Intestinal-type alkaline phosphatase (Homo sapiens, UniProt P09923); test: inhibition of human intestinal alkaline phosphatase – biochemical, dose response (AID 488876); assay type: functional
Hexokinase HKDC1 = Hexokinase HKDC1 (Homo sapiens, UniProt Q2TB90); test: HKDC1 hexokinase activators, dose response, biochemical, W721R variant (AID 504730); assay type: functional
[10] = molecular target: Scavenger receptor class B member 1 (Mus musculus, UniProt Q61009); test: inhibitors of SR-BI mediated HDL lipid uptake, dose response, ldlA[mSR-BI] cells, fluorescence, cherry pick (AID 493194); assay type: functional, cell-based;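 also: cellular uptake of fluorescent DiI-labeled HDL measured as cell fluorescence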
Hexokinase-1 = Hexokinase-1 (Homo sapiens, UniProt P19367); test: hexokinase 1 activators, dose response, selectivity assay for HKDC1 activator project, biochemical (AID 504762); assay type: functional
[11] = Fluorescence-based cell-based high throughput dose response assay for inhibitors of the interaction of nucleotide-binding oligomerization domain containing 2 (NOD2) and the receptor-interacting serine-threonine kinase 2 (RIPK2).; assay type: functional; conditions: Homo sapiens
[12] = molecular target: T4, Histone-lysine N-methyltransferase NSD2 (Homo sapiens, UniProt O96028); assay type: biochemical
T4 sequence (O96028 whole entry): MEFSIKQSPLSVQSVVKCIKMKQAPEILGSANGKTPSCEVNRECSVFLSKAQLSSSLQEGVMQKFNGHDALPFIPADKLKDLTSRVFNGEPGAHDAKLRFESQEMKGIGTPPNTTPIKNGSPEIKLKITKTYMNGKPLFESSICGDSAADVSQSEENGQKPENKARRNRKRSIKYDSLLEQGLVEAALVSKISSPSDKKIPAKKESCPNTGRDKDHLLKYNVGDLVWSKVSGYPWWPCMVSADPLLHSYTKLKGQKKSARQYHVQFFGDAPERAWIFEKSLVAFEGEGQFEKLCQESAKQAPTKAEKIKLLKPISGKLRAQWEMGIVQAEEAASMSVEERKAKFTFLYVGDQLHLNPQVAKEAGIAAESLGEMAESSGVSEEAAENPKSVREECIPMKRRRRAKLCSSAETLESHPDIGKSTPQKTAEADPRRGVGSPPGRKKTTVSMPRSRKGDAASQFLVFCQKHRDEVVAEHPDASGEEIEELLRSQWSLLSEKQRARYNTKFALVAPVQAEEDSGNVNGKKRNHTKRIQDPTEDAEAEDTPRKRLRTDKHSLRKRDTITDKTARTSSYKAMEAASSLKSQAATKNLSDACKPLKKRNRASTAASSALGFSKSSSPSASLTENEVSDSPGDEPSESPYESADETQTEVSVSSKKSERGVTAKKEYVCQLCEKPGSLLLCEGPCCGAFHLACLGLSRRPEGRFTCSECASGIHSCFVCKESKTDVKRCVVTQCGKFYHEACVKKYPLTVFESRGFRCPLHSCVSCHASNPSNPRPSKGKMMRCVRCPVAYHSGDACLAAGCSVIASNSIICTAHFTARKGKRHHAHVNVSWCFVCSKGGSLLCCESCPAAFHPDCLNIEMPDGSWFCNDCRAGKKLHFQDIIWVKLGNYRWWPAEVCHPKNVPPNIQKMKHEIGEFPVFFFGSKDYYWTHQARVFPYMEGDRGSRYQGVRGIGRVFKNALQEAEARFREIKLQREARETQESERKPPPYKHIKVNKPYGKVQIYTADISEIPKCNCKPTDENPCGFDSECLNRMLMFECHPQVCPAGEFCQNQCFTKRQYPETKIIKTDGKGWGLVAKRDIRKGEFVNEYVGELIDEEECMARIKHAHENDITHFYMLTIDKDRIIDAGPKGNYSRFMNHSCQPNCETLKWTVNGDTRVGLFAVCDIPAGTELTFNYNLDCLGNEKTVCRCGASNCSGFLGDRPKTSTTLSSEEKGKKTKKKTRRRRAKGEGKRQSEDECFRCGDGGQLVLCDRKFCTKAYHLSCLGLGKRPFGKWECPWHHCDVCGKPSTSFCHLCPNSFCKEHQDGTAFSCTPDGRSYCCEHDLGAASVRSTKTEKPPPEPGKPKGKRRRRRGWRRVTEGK

Tumor necrosis factor = Tumor necrosis factor (Homo sapiens, UniProt P01375); test: TNFa-triggered NF-kB activation inhibitors, SAR follow-up, cell-based, revised (AID 2337); assay type: functional
[13] = molecular target: Nucleotide-binding oligomerization domain-containing protein 1 (Homo sapiens, UniProt Q9Y239); test: NOD1 signaling inhibitors, SAR follow-up, revised (AID 2333); assay type: functional
[14] = molecular target: Nucleotide-binding oligomerization domain-containing protein 2 (Homo sapiens, UniProt Q9HC29); test: PubChem AID 2334; assay type: functional
HEK293 = test: cells; conditions: Homo sapiens;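 also: cells exposed to compound for 14 hours overnight before viability readout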
[15] = molecular target: Potassium voltage-gated channel subfamily KQT member 2 (Rattus norvegicus, UniProt O88943); test: KCNQ2 channel activators, analog series, SAR follow-up, automated patch clamp, KCNQ2-CHO cells (AID 493113); assay type: functional

Sphingosine 1-phosphate receptor 5, sequence (Q9H228 whole entry): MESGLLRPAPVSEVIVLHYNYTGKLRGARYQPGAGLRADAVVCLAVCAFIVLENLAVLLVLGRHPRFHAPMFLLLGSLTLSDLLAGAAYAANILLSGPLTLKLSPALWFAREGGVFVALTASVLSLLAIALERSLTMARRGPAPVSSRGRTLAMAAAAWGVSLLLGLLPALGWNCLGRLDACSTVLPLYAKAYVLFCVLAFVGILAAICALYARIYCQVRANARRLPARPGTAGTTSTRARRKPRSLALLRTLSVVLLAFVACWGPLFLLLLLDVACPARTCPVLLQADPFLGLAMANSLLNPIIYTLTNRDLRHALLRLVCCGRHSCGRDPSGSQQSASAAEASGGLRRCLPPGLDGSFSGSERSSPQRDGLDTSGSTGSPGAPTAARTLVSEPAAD
Scavenger receptor class B member 1, sequence (Q61009 whole entry): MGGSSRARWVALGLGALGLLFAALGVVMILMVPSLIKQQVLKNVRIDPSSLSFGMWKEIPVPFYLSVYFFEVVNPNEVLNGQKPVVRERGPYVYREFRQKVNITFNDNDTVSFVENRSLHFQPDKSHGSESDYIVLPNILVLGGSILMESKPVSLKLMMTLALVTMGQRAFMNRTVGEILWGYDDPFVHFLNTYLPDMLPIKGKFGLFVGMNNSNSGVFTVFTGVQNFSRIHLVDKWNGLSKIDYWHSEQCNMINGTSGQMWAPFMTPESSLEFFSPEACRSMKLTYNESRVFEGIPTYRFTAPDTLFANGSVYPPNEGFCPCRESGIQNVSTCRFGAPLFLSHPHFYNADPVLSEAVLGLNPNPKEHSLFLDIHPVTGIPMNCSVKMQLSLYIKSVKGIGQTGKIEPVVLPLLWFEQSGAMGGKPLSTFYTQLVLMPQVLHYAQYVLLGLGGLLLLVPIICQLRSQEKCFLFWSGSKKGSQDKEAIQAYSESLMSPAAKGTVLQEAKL
Sphingosine 1-phosphate receptor 1, sequence (P21453 whole entry): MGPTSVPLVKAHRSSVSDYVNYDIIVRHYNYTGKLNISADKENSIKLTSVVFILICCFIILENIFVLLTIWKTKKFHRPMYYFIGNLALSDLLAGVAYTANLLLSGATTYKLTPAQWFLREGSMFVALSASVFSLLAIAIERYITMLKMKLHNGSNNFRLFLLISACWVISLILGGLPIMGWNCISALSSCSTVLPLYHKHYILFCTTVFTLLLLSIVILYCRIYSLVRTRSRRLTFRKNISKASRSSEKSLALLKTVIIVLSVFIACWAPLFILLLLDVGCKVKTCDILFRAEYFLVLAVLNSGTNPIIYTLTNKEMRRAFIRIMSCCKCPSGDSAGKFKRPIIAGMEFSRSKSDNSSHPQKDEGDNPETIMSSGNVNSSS
Sphingosine 1-phosphate receptor 3, sequence (Q99500 whole entry): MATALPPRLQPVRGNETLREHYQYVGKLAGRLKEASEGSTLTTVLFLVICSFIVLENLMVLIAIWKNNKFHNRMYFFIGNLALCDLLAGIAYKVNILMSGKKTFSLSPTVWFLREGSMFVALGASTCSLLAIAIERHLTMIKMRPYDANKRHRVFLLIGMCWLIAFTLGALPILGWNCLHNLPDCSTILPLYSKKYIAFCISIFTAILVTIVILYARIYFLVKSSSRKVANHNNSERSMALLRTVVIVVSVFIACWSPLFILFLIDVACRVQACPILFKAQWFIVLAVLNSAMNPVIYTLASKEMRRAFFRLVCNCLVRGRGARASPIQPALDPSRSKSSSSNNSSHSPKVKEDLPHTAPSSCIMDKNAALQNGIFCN
Sphingosine 1-phosphate receptor 2, sequence (O95136 whole entry): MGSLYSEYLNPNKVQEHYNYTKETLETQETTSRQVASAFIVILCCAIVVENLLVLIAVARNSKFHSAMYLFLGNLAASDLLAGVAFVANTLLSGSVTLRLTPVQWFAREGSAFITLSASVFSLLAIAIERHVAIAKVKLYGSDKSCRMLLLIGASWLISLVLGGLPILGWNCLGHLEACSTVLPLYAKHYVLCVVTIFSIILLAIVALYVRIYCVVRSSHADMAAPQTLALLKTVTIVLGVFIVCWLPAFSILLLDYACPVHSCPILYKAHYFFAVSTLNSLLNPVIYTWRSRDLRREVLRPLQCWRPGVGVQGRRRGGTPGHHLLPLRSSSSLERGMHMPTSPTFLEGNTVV
Hexokinase-1, sequence (P19367 whole entry, the tested form may be a part): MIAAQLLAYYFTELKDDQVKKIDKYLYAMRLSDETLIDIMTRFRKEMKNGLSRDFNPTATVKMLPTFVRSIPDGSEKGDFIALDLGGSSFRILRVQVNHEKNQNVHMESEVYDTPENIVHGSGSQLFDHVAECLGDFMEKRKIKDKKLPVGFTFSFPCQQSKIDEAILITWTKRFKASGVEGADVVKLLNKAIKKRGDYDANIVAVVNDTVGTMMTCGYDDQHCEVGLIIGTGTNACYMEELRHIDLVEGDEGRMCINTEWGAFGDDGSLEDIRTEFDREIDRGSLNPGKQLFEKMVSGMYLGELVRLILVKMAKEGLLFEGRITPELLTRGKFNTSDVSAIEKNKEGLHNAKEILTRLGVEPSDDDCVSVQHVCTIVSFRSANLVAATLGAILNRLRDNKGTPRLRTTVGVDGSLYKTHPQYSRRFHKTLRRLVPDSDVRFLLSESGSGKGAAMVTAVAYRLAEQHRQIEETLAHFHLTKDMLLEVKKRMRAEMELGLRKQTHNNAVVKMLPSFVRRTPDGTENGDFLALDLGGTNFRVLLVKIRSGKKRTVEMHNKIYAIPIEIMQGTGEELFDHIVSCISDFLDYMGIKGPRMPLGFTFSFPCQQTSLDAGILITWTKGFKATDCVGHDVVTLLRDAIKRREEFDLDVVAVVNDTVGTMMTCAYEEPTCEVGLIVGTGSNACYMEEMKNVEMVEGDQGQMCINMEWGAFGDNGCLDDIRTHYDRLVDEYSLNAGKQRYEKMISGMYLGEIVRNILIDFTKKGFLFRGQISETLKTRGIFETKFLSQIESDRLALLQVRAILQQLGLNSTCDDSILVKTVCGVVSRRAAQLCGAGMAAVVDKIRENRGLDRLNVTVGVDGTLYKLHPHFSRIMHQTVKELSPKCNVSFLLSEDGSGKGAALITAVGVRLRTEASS
Hexokinase HKDC1, sequence (Q2TB90 whole entry): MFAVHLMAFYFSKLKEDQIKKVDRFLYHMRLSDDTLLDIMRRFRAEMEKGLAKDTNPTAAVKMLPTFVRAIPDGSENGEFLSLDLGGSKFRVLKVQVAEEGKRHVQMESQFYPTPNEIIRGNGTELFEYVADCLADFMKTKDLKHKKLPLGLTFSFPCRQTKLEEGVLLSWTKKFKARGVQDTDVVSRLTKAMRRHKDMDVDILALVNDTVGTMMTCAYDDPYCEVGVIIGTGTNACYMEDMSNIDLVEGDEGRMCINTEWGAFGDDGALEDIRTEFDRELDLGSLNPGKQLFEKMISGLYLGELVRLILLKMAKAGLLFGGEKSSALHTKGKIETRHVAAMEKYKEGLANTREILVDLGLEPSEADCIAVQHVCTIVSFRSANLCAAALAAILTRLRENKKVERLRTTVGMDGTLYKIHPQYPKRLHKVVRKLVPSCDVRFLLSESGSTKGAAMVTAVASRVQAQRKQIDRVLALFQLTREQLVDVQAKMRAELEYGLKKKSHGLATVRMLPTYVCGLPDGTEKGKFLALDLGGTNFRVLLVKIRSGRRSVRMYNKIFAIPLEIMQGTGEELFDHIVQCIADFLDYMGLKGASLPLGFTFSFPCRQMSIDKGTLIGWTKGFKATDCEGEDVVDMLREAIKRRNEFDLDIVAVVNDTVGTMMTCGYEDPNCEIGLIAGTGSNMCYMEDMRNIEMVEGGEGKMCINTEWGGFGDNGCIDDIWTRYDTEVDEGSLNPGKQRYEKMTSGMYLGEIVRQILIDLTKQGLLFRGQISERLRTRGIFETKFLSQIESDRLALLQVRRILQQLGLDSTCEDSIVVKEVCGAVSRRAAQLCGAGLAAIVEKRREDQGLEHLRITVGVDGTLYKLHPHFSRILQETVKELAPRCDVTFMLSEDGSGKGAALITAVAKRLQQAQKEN
Nucleotide-binding oligomerization domain-containing protein 2, sequence (Q9HC29 whole entry, the tested form may be a part): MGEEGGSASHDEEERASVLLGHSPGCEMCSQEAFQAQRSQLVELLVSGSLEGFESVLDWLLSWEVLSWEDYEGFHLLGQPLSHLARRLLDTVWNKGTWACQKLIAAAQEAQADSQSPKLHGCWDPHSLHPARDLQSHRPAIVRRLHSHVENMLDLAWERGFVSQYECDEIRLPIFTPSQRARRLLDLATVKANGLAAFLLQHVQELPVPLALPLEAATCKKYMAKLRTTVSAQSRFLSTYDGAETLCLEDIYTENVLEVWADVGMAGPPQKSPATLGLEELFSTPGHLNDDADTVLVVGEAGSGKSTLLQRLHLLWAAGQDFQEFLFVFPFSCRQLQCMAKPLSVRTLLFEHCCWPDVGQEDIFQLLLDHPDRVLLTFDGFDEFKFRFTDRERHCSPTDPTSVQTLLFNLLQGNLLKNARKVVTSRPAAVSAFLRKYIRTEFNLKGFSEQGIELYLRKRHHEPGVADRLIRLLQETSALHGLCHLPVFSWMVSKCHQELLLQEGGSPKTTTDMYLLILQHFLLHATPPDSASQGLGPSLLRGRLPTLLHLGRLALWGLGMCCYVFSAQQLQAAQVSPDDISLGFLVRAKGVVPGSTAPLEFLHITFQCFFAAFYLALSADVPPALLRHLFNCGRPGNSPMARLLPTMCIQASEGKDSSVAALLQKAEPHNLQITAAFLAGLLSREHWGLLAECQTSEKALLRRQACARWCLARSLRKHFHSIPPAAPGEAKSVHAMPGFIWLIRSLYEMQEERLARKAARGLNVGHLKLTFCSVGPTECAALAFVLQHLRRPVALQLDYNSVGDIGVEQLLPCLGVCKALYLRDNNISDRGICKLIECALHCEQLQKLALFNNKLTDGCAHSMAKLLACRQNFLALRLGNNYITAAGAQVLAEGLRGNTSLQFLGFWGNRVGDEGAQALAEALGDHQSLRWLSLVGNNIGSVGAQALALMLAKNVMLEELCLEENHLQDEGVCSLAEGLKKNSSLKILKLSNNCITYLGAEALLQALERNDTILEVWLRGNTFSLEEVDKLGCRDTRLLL

Which IC50 [1] does the source give for `CCc1cccc(C)c1NC(=O)c1ccc(-c2cc(OC)ccc2OC)o1` here?
The IC50 was > 25 µM (inactive).

What about the IC50 [2] of the same compound?
The IC50 was > 25 µM (inactive).

What about the IC50 [3] of the same compound?
Its IC50 is > 25 µM (inactive).

What about the IC50 [4] of the same compound?
Its IC50 is 0.513 µM (active).

And the IC50 [5]?
The IC50 was > 25 µM (inactive).

For `Cc1c(Cl)cccc1N=C(S)NCCC(c1ccccc1)c1ccccc1`, which EC50 [6] is on record?
Its EC50 is 8.52 µM (active).

What about the EC50 (Streptokinase A) of the same compound?
The EC50 was 3.76 µM (active).

What about the EC50 (Streptococcus) of the same compound?
The EC50 was > 150 µM (not active).

What about the IC50 [7] of the same compound?
Its IC50 is 8.34 µM (active).

What about the IC50 [8] of the same compound?
The IC50 was 29 µM (active).

And the IC50 [9]?
Its IC50 is 42.4 µM (active).

Which EC50 (Hexokinase HKDC1) does the source give for `CC(=O)OC1C2(CC3N4C(=O)C5(CO)SSC4(CC31O)C(=O)N5C)OC(C)C(C)(C)C2=O` (stereo unspecified) here?
Its EC50 is 0.212 µM (active).

What about the AC50 [10] of the same compound?
Its AC50 is 5.61 µM (active).

What about the EC50 (Hexokinase-1) of the same compound?
Its EC50 is > 80 µM (inactive).

What about the IC50 [11] of the same compound?
Its IC50 is 3.64 µM (active).

What about the AC50 [12] of the same compound?
The AC50 was 1.06 µM (active).

What does the source list for `O=C(Nc1nc2ccccc2n1Cc1ccc(Cl)cc1)c1ccc(Cl)cc1`?
IC50 (Tumor necrosis factor): > 20 µM (inactive); IC50 [13]: > 20 µM (inactive); IC50 [14]: > 20 µM (inactive); IC50 (HEK293): > 20 µM (inactive)

For `Cc1cc(C)c(NC(=O)C2CCCCC2)c(C)c1`, which EC50 [15] is on record?
Its EC50 is 1.57 µM (active).
